Data from patent publication US20220380314A1, “SUBSTITUTED, SATURATED AND UNSATURATED N-HETEROCYCLIC CARBOXAMIDES AND RELATED COMPOUNDS FOR THEIR USE IN THE TREATMENT OF MEDICAL DISORDERS” (Bial - R&D Investments, S.A., priority 2019, published 2022).
Counter-ions that a name gives are not always drawn.

These molecules were tested against T1, acid ceramidase (hACR) (Homo sapiens, UniProt Q13510) (assay: Acid ceramidase inhibition, biochemical fluorescent assay with cell lysates overexpressing acid ceramidase, substrate Rbm14-12). Details: cell lysates overexpressing acid ceramidase; 1 hr preincubation at RT; pH 4.5; substrate Rbm14-12 6.3 μM; read-out: hACR IC50.
T1 construct: expressed in transfected cells; cell lysate used
T1 sequence (Q13510 143-395 limits assumed): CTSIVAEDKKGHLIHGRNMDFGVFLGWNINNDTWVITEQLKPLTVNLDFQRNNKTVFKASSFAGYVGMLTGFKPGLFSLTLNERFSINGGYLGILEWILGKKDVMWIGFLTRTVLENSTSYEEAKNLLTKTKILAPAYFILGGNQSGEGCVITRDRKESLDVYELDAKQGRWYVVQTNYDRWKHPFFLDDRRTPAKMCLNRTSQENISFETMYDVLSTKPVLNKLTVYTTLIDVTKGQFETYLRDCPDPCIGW
T1 sequence (Q13510 22-142 limits assumed): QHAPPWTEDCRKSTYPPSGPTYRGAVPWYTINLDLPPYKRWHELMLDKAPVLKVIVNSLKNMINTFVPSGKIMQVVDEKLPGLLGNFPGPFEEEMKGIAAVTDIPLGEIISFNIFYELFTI
Protocol: The ability of exemplary compounds to inhibit acid ceramidase was measured.
Cell lysates overexpressing acid ceramidase were used as the enzyme source for compound potency determination in a biochemical fluorescent assay. Briefly, compounds were preincubated with 10 µg protein of cell lysates in a dose-response manner for 1 hr at RT in the assay buffer containing 25 mM NaAC and 100 mM NaCl, pH 4.5. The reaction was initiated by the addition of substrate Rbm14-12 at a final concentration of 6.3 μM. The reaction was run at RT for 1 hr before it was stopped by the addition of the stopping buffer containing 20% methanol (v/v), 1 mg/ml NaIO4, 0.1 M glycine, pH 10.6. The samples were incubated with the stopping buffer at RT for 1 hr to allow the fluorescent product to be formed. Finally the plate was read with SpectraMax i3 plate reader (Molecular Devices) at ex360 nm and em446 nm. Data were collected and used to determine the IC50 values of compounds by curve fitting to the four-parameter inhibition equation.
The symbol “A” indicates inhibition of less than 0.2 μM; the symbol “B” indicates inhibition in the range of 0.2 μM up to 1 μM; and the symbol “C” indicates inhibition of greater than 1 μM.

IC50 | Compound
< 200 nM | CC1CCC(c2ccccc2)CN1C(=O)NCCCCc1ccccc1 (mixture of isomers) [Example 80, 2-Methyl-5-phenyl-N-(4-phenylbutyl)piperidine-1-carboxamide]
200 to 1000 nM | CC1C(c2ccccc2)CCCN1C(=O)NCCCCc1ccccc1 (mixture of isomers) [Example 81, 2-Methyl-3-phenyl-N-(4-phenylbutyl)piperidine-1-carboxamide]
> 1000 nM | CCCCCNC(=O)N1[C@@H]2CC[C@H]1CC(c1ccccc1)C2 (mixture of isomers) [Example 82, endo- and exo-N-Pentyl-3-phenyl-8-azabicyclo[3.2.1]octane-8-carboxamide]
> 1000 nM | CC1(C)CC(N2CCCCC2c2ccccc2)CCN1C(=O)NCCCCc1ccccc1 (mixture of isomers) [Example 91, 2,2-Dimethyl-N-(4-phenylbutyl)-4-(2-phenyl-1-piperidyl)piperidine-1-carboxamide]
> 1000 nM | CC1(C)CC(N2CCCC(c3ccccc3)C2)CCN1C(=O)NCCCCc1ccccc1 (mixture of isomers) [Example 92, 2,2-Dimethyl-N-(4-phenylbutyl)-4-(3-phenyl-1-piperidyl)piperidine-1-carboxamide]
< 200 nM | CC1CC(N2CCCCC2)CCN1C(=O)NCCCCc1ccccc1 (mixture of isomers) [Example 94, 2-Methyl-N-(4-phenylbutyl)-4-(1-piperidyl)piperidine-1-carboxamide]
200 to 1000 nM | CCCCCNC(=O)N1CCC(N2CCCCC2)C[C@@H]1C (mixture of isomers) [Example 97, (2S)-Methyl-N-pentyl-4-(1-piperidyl)piperidine-1-carboxamide]
< 200 nM | CC[C@H](C)NC(=O)N1C(c2ccc(OC)cc2)COCC1(C)C (mixture of isomers) [Example 155, (5R) AND (5S)-5-(4-Methoxyphenyl)-3,3-dimethyl-N-[(1S)-1-methylpropyl]morpholine-4-carboxamide]
< 200 nM | CCCCCNC(=O)N1C(c2ccc(F)cc2)COCC1(C)C (single isomer, unassigned) [Example 138, (5S) or (5R)-5-(4-Fluorophenyl)-3,3-dimethyl-N-pentylmorpholine-4-carboxamide]
< 200 nM | CCCCCNC(=O)N1C(c2ccc(F)cc2)COCC1(C)C (single isomer, unassigned) [Example 139, (5S) or (5R)-5-(4-fluorophenyl)-3,3-dimethyl-N-pentylmorpholine-4-carboxamide]
> 1000 nM | CC1(C)CCc2c(-c3ccccn3)cccc2N1C(=O)NCCc1ccccc1 [Example 5, 2,2-Dimethyl-N-phenethyl-5-(pyridin-2-yl)-3,4-dihydroquinoline-1(2H)-carboxamide]
> 1000 nM | CCCCCNC(=O)N1CCC(c2ccccc2)CC1(C)C (stereo not drawn) [Example 76, 2,2-Dimethyl-N-pentyl-4-phenylpiperidine-1-carboxamide]
> 1000 nM | CC1(C)CC(c2ccccc2)CCN1C(=O)NC1CCOCC1 (stereo not drawn) [Example 78, 2,2-Dimethyl-4-phenyl-N-tetrahydropyran-4-yl-piperidine-1-carboxamide]
< 200 nM | CCCCCNC(=O)N1CCC(N2CCCCC2)CC1(C)C (stereo not drawn) [Example 84, 2,2-Dimethyl-N-pentyl-4-(1-piperidyl)piperidine-1-carboxamide]
> 1000 nM | CCCCCCCNC(=O)N1CCC(N2CCCCC2)CC1(C)C (stereo not drawn) [Example 85, N-Heptyl-2,2-dimethyl-4-(1-piperidyl)piperidine-1-carboxamide]
< 200 nM | CN1CCN(C2CCN(C(=O)NCCCCc3ccccc3)C(C)(C)C2)CC1 (stereo not drawn) [Example 87, 2,2-Dimethyl-4-(4-methylpiperazin-1-yl)-N-(4-phenylbutyl)piperidine-1-carboxamide dihydrochloride]
> 1000 nM | CC1(C)CCCCN1C(=O)NCCCCc1ccccc1 [Example 90, 2,2-Dimethyl-N-(4-phenylbutyl)piperidine-1-carboxamide carboxamide]
< 200 nM | CC1(C)CC(N2CCC(c3ccccc3)CC2)CCN1C(=O)NCCCCc1ccccc1 (stereo not drawn) [Example 93, 2,2-Dimethyl-N-(4-phenylbutyl)-4-(4-phenyl-1-piperidyl)piperidine-1-carboxamide]
200 to 1000 nM | CCCCCNC(=O)N1CCC(N2CCCCC2)CC1C (stereo not drawn) [Example 95, 2-Methyl-N-pentyl-4-(1-piperidyl)piperidine-1-carboxamide]
< 200 nM | CCCCCNC(=O)N1CCC(N2CCCCC2)C[C@H]1C (stereo partly drawn) [Example 96, (2R)-Methyl-N-pentyl-4-(1-piperidyl)piperidine-1-carboxamide hydrochloride salt]

IC50 | Compound
< 200 nM | CCCCCNC(=O)N1C(C)CC(N2CCCCC2)CC1C (stereo not drawn) [Example 98, 2,6-Dimethyl-N-pentyl-4-(1-piperidyl)piperidine-1-carboxamide hydrochloride]
< 200 nM | CC1(C)CCC(N2CCCCC2)CN1C(=O)NCCCCc1ccccc1 (stereo not drawn) [Example 99, 2,2-Dimethyl-N-(4-phenylbutyl)-5-(1-piperidyl)piperidine-1-carboxamide]
200 to 1000 nM | CC1CCC(N2CCCCC2)CN1C(=O)NCCCCc1ccccc1 (stereo not drawn) [Example 100, 2-Methyl-N-(4-phenylbutyl)-5-(1-piperidyl)piperidine-1-carboxamide]
200 to 1000 nM | CC1C(N2CCCCC2)CCCN1C(=O)NCCCCc1ccccc1 (stereo not drawn) [Example 101, 2-Methyl-N-(4-phenylbutyl)-3-(1-piperidyl)piperidine-1-carboxamide]
> 1000 nM | CCCCCNC(=O)N1[C@@H]2CC[C@H]1C[C@H](N1CCCCC1)C2 [Example 102, Exo-N-Pentyl-3-(1-piperidyl)-8-azabicyclo[3.2.1]octane-8-carboxamide]
< 200 nM | CC1(C)CN(c2ccccc2)CCN1C(=O)NCCCCc1ccccc1 [Example 103, 2,2-Dimethyl-4-phenyl-N-(4-phenylbutyl)piperazine-1-carboxamide]
> 1000 nM | CC1(C)CN(c2ccccn2)CCN1C(=O)NCCCCc1ccccc1 [Example 104, 2,2-Dimethyl-N-(4-phenylbutyl)-4-(2-pyridyl)piperazine-1-carboxamide]
> 1000 nM | CC1(C)CN(c2cncnc2)CCN1C(=O)NCCCCc1ccccc1 [Example 105, 2,2-Dimethyl-N-(4-phenylbutyl)-4-pyrimidin-5-yl-piperazine-1-carboxamide]
< 200 nM | CC1(C)C(=O)N(c2ccccc2)CCN1C(=O)NCCCCc1ccccc1 [Example 106, 2,2-Dimethyl-3-oxo-4-phenyl-N-(4-phenylbutyl)piperazine-1-carboxamide]
200 to 1000 nM | CCCCCNC(=O)N1CCN(c2ccccc2)C(=O)C1(C)C [Example 107, 2,2-Dimethyl-3-oxo-N-pentyl-4-phenylpiperazine-1-carboxamide]
> 1000 nM | CC1(C)C(=O)N(c2ccccc2)CCN1C(=O)NCCOCc1ccccc1 [Example 108, N-(2-Benzyloxyethyl)-2,2-dimethyl-3-oxo-4-phenylpiperazine-1-carboxamide]
< 200 nM | COc1cc(N2CCN(C(=O)NCCCCc3ccccc3)C(C)(C)C2=O)ccc1F [Example 109, 4-(4-Fluoro-3-methoxy-phenyl)-2,2-dimethyl-3-oxo-N-(4-phenylbutyl)piperazine-1-carboxamide]
< 200 nM | CC1(C)CN(C2CCCCC2)CCN1C(=O)NCCCCc1ccccc1 [Example 110, 4-Cyclohexyl-2,2-dimethyl-N-(4-phenylbutyl)piperazine-1-carboxamide]
< 200 nM | CC1(C)CN(C2CC2)CCN1C(=O)NCCCCc1ccccc1 [Example 111, 4-Cyclopropyl-2,2-dimethyl-N-(4-phenylbutyl)piperazine-1-carboxamide]
< 200 nM | CCCCCNC(=O)N1CCN(C2CC2)CC1(C)C [Example 112, 4-Cyclopropyl-2,2-dimethyl-N-pentylpiperazine-1-carboxamide]
200 to 1000 nM | C[C@@H]1CN(C(=O)NCCCCc2ccccc2)[C@@H](C)CN1C1CC1 [Example 113, (2S,5R)-4-Cyclopropyl-2,5-dimethyl-N-(4-phenylbutyl)piperazine-1-carboxamide]
> 1000 nM | CCCCCNC(=O)N1C[C@@H](C)N(C2CC2)C[C@@H]1C [Example 114, (2S,5R)-4-cyclopropyl-2,5-dimethyl-N-pentylpiperazine-1-carboxamide]
200 to 1000 nM | CC(C)[C@@H]1CN(C2CC2)CCN1C(=O)NCCCCc1ccccc1 [Example 116, (2R)-4-Cyclopropyl-2-isopropyl-N-(4-phenylbutyl)piperazine-1-carboxamide]
> 1000 nM | CC(C)[C@H]1CN(C2CC2)CCN1C(=O)NCCCCc1ccccc1 [Example 117, (2S)-4-Cyclopropyl-2-isopropyl-N-(4-phenylbutyl)piperazine-1-carboxamide]
